Data: ChEMBL document CHEMBL4251742, “Modulating ADME Properties by Fluorination: MK2 Inhibitors with Improved Oral Exposure” (ACS Med Chem Lett, 2018)
In brackets after ≈: the same amount, converted by molar mass.

How the values were obtained:
[1] = Lipophilicity, log D of compound at pH 7.4; conditions: buffer
Blood = experiment: tissue or blood; conditions: Homo sapiens
[2] = Aqueous solubility of the compound; type: physicochemical; conditions: buffer
[3] = Clearance in Sprague-Dawley rat at 1 mg/kg, iv administered as single cassette dose by LC-MS/MS analysis; type: ADME, organism-based; conditions: in vivo
[4] = Permeability of the compound by PAMPA; type: ADME
[5] = (§1) Oral bioavailability in Sprague-Dawley rat at 3 mg/kg administered as single cassette dose by LC-MS/MS analysis; type: ADME, organism-based; conditions: Sprague-Dawley, in vivo
Rattus norvegicus [6] = experiment: Dose normalized AUC in Sprague-Dawley rat at 3 mg/kg, po administered as single cassette dose by LC-MS/MS analysis; type: ADME, organism-based; conditions: in vivo
PBMC = experiment: cells; conditions: Homo sapiens
Rattus norvegicus [7] = experiment: as §1; type: ADME, organism-based; conditions: in vivo
[8] = Clearance in Sprague-Dawley rat at 1 mg/kg, iv administered as single cassette dose measured over 8 hrs by LC-MS/MS analysis; type: ADME, organism-based; conditions: in vivo
[9] = Oral bioavailability in Sprague-Dawley rat at 3 mg/kg administered as single cassette dose measured over 8 hrs by LC-MS/MS analysis; type: ADME, organism-based; conditions: in vivo
Rattus norvegicus [10] = experiment: Dose normalized AUC in Sprague-Dawley rat at 3 mg/kg, po administered as single cassette dose measured over 8 hrs by LC-MS/MS analysis; type: ADME, organism-based; conditions: in vivo
[11] = biological target: T1, MAP kinase-activated protein kinase 2 (Homo sapiens, UniProt P49137); experiment: Inhibition of MK2 in anisomycin-stimulated human THP1 cells assessed as reduction in hsp27 phosphorylation at Ser78 by FACS analysis
[12] = biological target: T1, MAP kinase-activated protein kinase 2; experiment: Inhibition of human MK2 using hsp27 peptide biotinyl-AYSRALSRQLSSGVSEIRCOOH as substrate after 45 mins by TR-FRET assay

T1 sequence (P49137 whole entry): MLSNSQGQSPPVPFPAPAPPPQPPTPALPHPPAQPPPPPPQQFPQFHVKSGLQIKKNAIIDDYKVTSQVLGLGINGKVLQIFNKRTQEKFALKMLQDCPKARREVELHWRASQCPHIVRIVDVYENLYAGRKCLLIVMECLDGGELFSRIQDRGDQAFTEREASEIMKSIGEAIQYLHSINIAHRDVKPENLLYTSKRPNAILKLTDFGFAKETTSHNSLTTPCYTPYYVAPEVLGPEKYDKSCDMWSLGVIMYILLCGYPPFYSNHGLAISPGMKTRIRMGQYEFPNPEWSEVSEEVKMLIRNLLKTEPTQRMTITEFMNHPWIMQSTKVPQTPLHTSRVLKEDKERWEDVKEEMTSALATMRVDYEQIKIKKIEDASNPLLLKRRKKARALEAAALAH

Row | Structure (SMILES) | logD [1] | IC50 (Blood) [nM] | solubility [2] [µg/mL] | clearance [3] [mL/min/kg] | log(permeability) [4] | bioavailability [5] [%] | AUC/dose (Rattus norvegicus [6]) [nmol·h/L] | F (Rattus norvegicus [7]) [%] | clearance [8] [mL/min/kg] | bioavailability [9] [%] | AUC/dose (Rattus norvegicus [10]) [nmol·h/L] | IC50 [11] [nM] | IC50 [12] [nM] | IC50 (PBMC) [nM]
1 | COc1ccc(-c2ncc3c(c2F)-c2[nH]c4c(c2CC3)C(=O)NCC42CN(C)C2)cc1F | 3.3 | 800 |  | 20 | -4.5 | 60 | 1301 |  |  |  |  |  |  | 240
2 | CN1CC2(CNC(=O)c3c4c(n(C)c32)-c2cc(-c3cccc(Cl)c3)ncc2CC4)C1 | 3.7 |  |  |  | -3.9 |  |  |  | 10 | 53 | 2415 |  |  | 

Further lines, with some results ahead:

Row | logD [1] | IC50 (Blood) [nM] | solubility [2] [µg/mL] | clearance [3] [mL/min/kg] | log(permeability) [4] | bioavailability [5] [%] | AUC/dose (Rattus norvegicus [6]) [nmol·h/L] | F (Rattus norvegicus [7]) [%] | clearance [8] [mL/min/kg] | bioavailability [9] [%] | AUC/dose (Rattus norvegicus [10]) [nmol·h/L] | IC50 [11] [nM] | IC50 [12] [nM] | Structure (SMILES) | IC50 (PBMC) [nM]
3 | 3.4 | 670 | 32 (≈ 82.4 µM) | 100 | -5.2 | 27 | 121 |  |  |  |  |  |  | CN1CC2(CNC(=O)c3c2[nH]c2c3CCc3cnc(-c4cccc(F)c4)cc3-2)C1 | 
4 |  |  |  | 30 | -4.6 |  | 2154 | 151 |  |  |  |  |  | CN1CC2(CNC(=O)c3c2[nH]c2c3CCc3cnc(-c4cccc(F)c4)nc3-2)C1 | 
5 | 3.2 | 1650 | 4 (≈ 9.84 µM) | 11 | -4.1 | 81 | 3486 |  |  |  |  |  |  | CN1CC2(CNC(=O)c3c2[nH]c2c3CCc3cnc(-c4cccc(F)c4)c(F)c3-2)C1 | 550
6 | 2.8 | 590 |  | 19 | -4.8 | 77 | 1766 |  |  |  |  | 480 | < 3 | COc1ccc(-c2ncc3c(c2F)-c2[nH]c4c(c2CC3)C(=O)NCC42CN(C)C2)cn1 | 490
